The values below come from article PMC7361990, “Molecular Basis for Ser/Thr Specificity in PKA Signaling” (Cells, 2020).

One assay addresses T1, PKA Cα F187I (Homo sapiens, UniProt P17612, F188I).
T1 construct: made in house
As to the kind of experiment: Coupled spectrophotometric kinase assay. The assay is classed as biochemical. Particulars: mean ± SD of at least three independent measurements; for Km / kcat: 20 nM kinase with S-Kemptide, 10 nM with T-Kemptide, SD; for kcat/KM: catalytic efficiency. On the procedure: (§1) To determine the Michaelis-Menten constant (KM) and the turnover number (kcat) of purified PKA Cα wt and the DFG+1 mutants for the peptide substrate Kemptide, a coupled spectrophotometric assay was used. As we were interested in the substrate specificity of the kinase, we tested two different peptide substrates: S-Kemptide (LRRASLG) as a serine substrate and T-Kemptide (LRRATLG) as a threonine substrate (GeneCust, Boynes, France). 50 nM PKA Cα wt were used when measured with T-Kemptide and 20 nM wt, F187I, or F187T when measured with S-Kemptide. In all other assays, the final kinase concentration was 10 nM of the respective kinase. All kinases were measured with a minimum of three independent replicates. The calculated turnover was plotted against the […] and analyzed with GraphPad Prism 8.0 (GraphPad Software, San Diego, CA, USA).

In the next assay the target is T2, PKA Cα F187T (Homo sapiens, UniProt P17612, F188T).
T2 construct: made in house
As to the kind of experiment: Coupled spectrophotometric kinase assay. Format: biochemical. Particulars: mean ± SD of at least three independent measurements; for Km / kcat: 20 nM kinase with S-Kemptide, 10 nM with T-Kemptide, SD; for kcat/KM: catalytic efficiency. As for the experimental part:
as §1

A further assay has as its target T3, PKA Cα wt (Homo sapiens, UniProt P17612).
T3 construct: made in house
As to the kind of experiment: Coupled spectrophotometric kinase assay. Format: biochemical. Particulars: for Km / kcat: 20 nM kinase with S-Kemptide, 50 nM with T-Kemptide, SD; for Km / kcat / kcat/KM: mean ± SD of at least three independent measurements; for kcat/KM: catalytic efficiency. As for the experimental part: as §1

A further assay relates to PKA. As to conditions: cited from earlier work. The source says:
The PKA C subunit is a classic example for a Ser/Thr kinase with serine specificity and this preference is highly conserved among different species. PKA can select target substrates according to the consensus sequence RRXS*/T*Y, where X is any residue, and Y is a hydrophobic residue.

Take “LRRATLG [T-Kemptide, LRRATLG, threonine peptide substrate]”: the figures for the Km at PKA Cα F187I, on PKA Cα F187T and at PKA Cα wt were 19.8 ± 3.3 µM, 25 ± 3.4 µM and 861 ± 184 µM, respectively. The kcat was 43.0 ± 4.7 s⁻¹ on PKA Cα F187I, 37.1 ± 4.5 s⁻¹ on PKA Cα F187T and 7.5 ± 0.8 s⁻¹ at PKA Cα wt. The kcat/KM at PKA Cα F187I is reported as 22.1 ± 4.5 ×10^5 M^−1s^−1; on PKA Cα F187T it was 14.9 ± 0.6 ×10^5 M^−1s^−1; on PKA Cα wt, 0.09 ± 0.02 ×10^5 M^−1s^−1.

“GRTGRRNSI [peptide derived from PKI with a serine introduced at the P0 position]”: the “higher catalytic efficiency than Kemptide” value in the assay on PKA is on record as “more than 70 fold”.

Turning to “LRRASLG [S-Kemptide, heptapeptide (LRRASLG), canonical serine substrate of PKA derived from the porcine liver pyruvate kinase]”, in the assay with PKA Cα F187I, the Km is 92.2 ± 3.8 µM, the kcat is 25.4 ± 5.8 s⁻¹ and the kcat/KM was 2.8 ± 0.8 ×10^5 M^−1s^−1. Besides, in the assay with PKA Cα F187T, the Km stood at 23 ± 3.1 µM, the kcat came out at 15.7 ± 0.3 s⁻¹ and the kcat/KM is 6.9 ± 1.2 ×10^5 M^−1s^−1. In the assay with PKA Cα wt, the Km worked out at 19.8 ± 3.9 µM, the kcat came out at 19.8 ± 1.0 s⁻¹ and the kcat/KM is listed as 10.3 ± 1.7 ×10^5 M^−1s^−1. The “higher catalytic efficiency (kcat/KM) for the serine substrate peptide compared to T-Kemptide” value with PKA Cα wt (S-Kemptide versus T-Kemptide) is on record as “more than 100 fold”.
